Reference: ChEMBL document CHEMBL3045433, “Induction of Resistance against Rice Bacterial Leaf Blight by 3-Chloro-1-methyl-1H-pyrazole-5-carboxylic Acid” (2005)
Calls of active or inactive are those of the source. The rule behind the calls is not given here.

Columns and labels:
[1] = test system: Oryza sativa; test: Induction of disease resistant in three-leaf stage of Oryza sativa (rice) plant against Xanthomonas oryzae pv. oryzae-induced leaf blight at 0.05 to 5 mg/pot after 7 days; format: functional, organism-based
[2] = test system: Oryza sativa; test: Induction of PBZ1 gene expression in three-leaf stage of Oryza sativa (rice) plant leaf after 5 days by Northern blot analysis; format: functional, organism-based
[3] = test system: Oryza sativa; test: Induction of disease resistant in three-leaf stage of Oryza sativa (rice) plant against Xanthomonas oryzae pv. oryzae-induced leaf blight at 0.05 to 0.5 mg/pot after 7 days; format: functional, organism-based
[4] = test system: Oryza sativa; test: Induction of disease resistant in three-leaf stage of Oryza sativa (rice) plant against Xanthomonas oryzae pv. oryzae-induced leaf blight at 5 mg/pot after 7 days; format: functional
[5] = test system: Oryza sativa; test: Induction of disease resistant in three-leaf stage of Oryza sativa (rice) plant against Xanthomonas oryzae pv. oryzae-induced leaf blight after 7 days; format: functional, organism-based
[6] = test system: Xanthomonas oryzae pv. oryzae; test: Antibacterial activity against Xanthomonas oryzae pv. oryzae up to 1 mg/ml after 48 hr; format: functional, organism-based

SMILES: C=CCOC1=NS(=O)(=O)c2ccccc21
- Activity [1]: Active
- Activity [2]: Dose-dependent effect

SMILES: CSC(=O)c1cccc2nnsc12
- Activity [1]: Active
- Activity [2]: Dose-dependent effect

SMILES: N#CCNC(=O)c1ccnc(Cl)c1
- Activity [2]: Dose-dependent effect

SMILES: Cn1nc(Cl)cc1C(=O)O [3-CHLORO-1-METHYL-1H-PYRAZOLE-5-CARBOXYLIC ACID]
- Activity [3]: Active
- Activity [4]: 99.5%
- Activity [5]: Dose-dependent effect
- Activity [6]: inactive
- Activity [2]: Dose-dependent effect
